Experimental data reported in patent US6468763B1, “Optical detection of transmembrane potential changes” (Caliper Technologies Corp., priority 1999, dated 2002).

System: CHO cells
Assay: Voltage dependent quenching of WGA-F1 fluorescence in response to changes in the potassium diffusion potential
Format: cell-based, Chinese hamster
Details: excitation 475 nm
Method: Crystal violet was purchased from Fischer Scientific. Fluorescein labeled wheat germ agglutinin (WGA-F1) was purchased from Sigma Chemical. Valinomycin was purchased from Sigma Chemical Chinese hamster ovary cells (CHO) were grown in Ham's F12 media (Irvine Scientific) with 10% fetal bovine serum and 1% penicillin/streptomycin. Adherent cells were harvested using phosphate buffered saline with 0.5 mM EDTA (Irvine Scientific). Cells were washed in Hank's buffered saline solution (HBSS) containing 20 mM Hepes at pH 7.2. Cells suspended in HBSS at a concentration of 10^6 cells/ml were stained with 2 μg/ml WGA-F1 and 40 nM crystal violet for 15 minutes at room temperature. The cells were washed with HBSS and suspended in HBSS containing 1 μM sulforhodamine 101 (Sigma Chemical). Sulforhodamine 101 was used as a voltage insensitive volume marker to account for possible dilution artifacts. […] Fluorescence measurements on cell suspensions were made at room temperature using a FluoroMax-2 fluorometer (Spex). […]
The cationic quencher will redistribute from the intracellular side of the plasma membrane to the extracellular side as the cell is depolarized. […] The fluorescein fluorescence in the depolarized cells is decreased by 20% compared to the hyperpolarized cells. No difference is seen in sulforhodamine 101 fluorescence.
Octadecyl rhodamine B (R18) was purchased from Molecular Probes. […] Fluorescence measurements on cell suspensions were made at room temperature using a FluoroMax-2 fluorometer (Spex). […]
The cationic quencher redistributes from the intracellular side of the plasma membrane to the extracellular side as the cell is depolarized. […] The fluorescein fluorescence in the depolarized cells is decreased by 3% and the rhodamine fluorescence is increased by 2% compared to the hyperpolarized cells. The observed changes in fluorescein and R18 fluorescence are consistent with the translocation-dependent changes in fluorescence resonance energy transfer.

[1] = CHO cells stained with 2 μg/ml WGA-F1 and 500 nM R18, high potassium vs high sodium buffer, valinomycin

| Compound | decrease of fluorescein fluorescence in the depolarized cells compared to the hyperpolarized cells (CHO cells stained with 2 μg/ml WGA-F1 and 40 nM crystal violet, high potassium buffer (126 mM K+) vs high sodium buffer (6 mM K+), 5 μM valinomycin) | decrease of fluorescein fluorescence in the depolarized cells compared to the hyperpolarized cells [1] | increase of rhodamine fluorescence (sensitized emission) in the depolarized cells compared to the hyperpolarized cells [1] |
| --- | --- | --- | --- |
| CN(C)c1ccc(C(=C2C=CC(=[N+](C)C)C=C2)c2ccc(N(C)C)cc2)cc1 [crystal violet] | 20% |  |  |
| CCCCCCCCCCCCCCCCCCOC(=O)c1ccccc1-c1c2ccc(=[N+](CC)CC)cc-2oc2cc(N(CC)CC)ccc12.[Cl-] [R18, Octadecyl rhodamine B] |  | 3% | 2% |
